Test results: patent publication EP1125931A1, “Biocidal alkyl-substituted-(hetero)aryl-ketoxime-O-ethers and the production method thereof” (Hunan Research Institute of Chemical Industry, priority 2000, dated 2001)
Like-named read-outs stand apart in the source and are kept apart here.

Legend:
Spotted cutworm = assay: Biological activity (LC50) against spotted cutworm; format: in vivo
American tobacco cutworm = assay: Biological activity (LC50) against American tobacco cutworm; format: in vivo
Green peach aphid = assay: Biological activity (LC50) against green peach aphid; format: in vivo
Spinach army worm = assay: Biological activity (LC50) against spinach army worm; format: in vivo
[1] = tested on: leafhopper Nephotetlix cimeticeps; assay: Test for the biological activity against leafhopper (rice seedling dip); format: in vivo; conditions: after 24 hours; for kill rate: at a lower concentration (than 250 ppm); for leafhoppers killed: concentration 250 ppm (content of effective component), average of 3 tests
Protocol: Emulsion oil or wettable powder of the alkyl-substituted-(hetero)aryl-ketoxime-o-ether, ketone intermediate, or active oxime compound of this invention prepared by the method described in the Example for preparing a controlling agent in agriculture was diluted with water to prepare a solution of agricultural chemical having a certain concentration. Rice seedlings (second semester) were dipped in the solution of agricultural agent for 5 seconds, and then removed. It was drained and then placed in a large test tube. Each test tube contained 20 seedlings. Then, 20 leafhoppers (5th instar) were introduced in the tube, and the mouth of the tube was covered with a white cheesecloth. The tube was kept at room temperature, and number of live and dead leafhoppers was examined after 24 hours. Test was run 3 times, and results were averaged.

Mythimne separata = assay: Test for the biological activity against Mythimne separata (spray, Petri dish with corn fragments); format: in vivo; conditions: after 24 hours
Protocol: Emulsion oil or wettable powder of the alkyl-substituted-(hetero)aryl-ketoxime-o-ether, intermediate ketone, or the active oxime compound of this invention prepared by the procedure described in the Examples for preparing a controlling agent in agriculture described above was diluted with water to prepare a solution of agricultural chemical having a certain concentration.
Ten heads of Mythimne separata and 5 pieces of corn fragments were placed in a Petri dish, and it was sprayed with a certain amount of agricultural chemical solution. After the exposure, it was kept in a room for normal cultivation. After 24 hours, number of live and dead insects were counted. Test was run 3 times, and results were averaged. […] Some compounds (I) [such as Code No. 5, 8, and 30] shown in Table 1] gave 100% lethal rate even when the concentration was lower than 500 ppm.

aphids Aphis fabae = assay: Test for the biological activity against aphids (seedling dip); format: in vivo; conditions: after 24 hours; for lethal rate: at a lower concentration (than 250 ppm); for aphids killed: concentration 250 ppm (content of effective component), average of 3 tests
Protocol: Emulsion oil or wettable powder of the alkyl-substituted-(heteroaryl-ketoxime-o-ether, ketone intermediate or active oxime compound of this invention prepared by the method described in the Example for preparing a controlling agent in agriculture was diluted with water to prepare a solution of agricultural chemical having a certain concentration. Aphids were inoculated in the new seedlings (more than 15). Then, the seedlings, together with the aphids, were dipped in the solution of agricultural agent for 5 seconds, removed, and excess liquid was drained. They were placed in a water-absorbing sponge, and held by glass rods. After 24 hours, the number of live and dead aphids was examined. Test was run 3 times, and the results were averaged. With a series of compound (I) [Code No. 5, 8, 21, 22, 23, 30, 33, 46, 47, 48], the aphids were killed 100% when the concentration was 250 ppm (calculated as the content of effective component). Some compounds (I) [Code No. 5, 8, and 30 in Table 1] gave 100% lethal rate with the aphids, even at a lower concentration.

fungal pathogens = assay: Test for antifungal activity (mycelial growth on PDA media); format: cell-based; conditions: against one or more fungal pathogens; concentration 100 ppm; 72 hours of cultivation; read-out: growth inhibition rate
Protocol: Alkyl-substituted-(hetero)aryl-ketoxime-o-ether, ketone intermediate, or active oxime compound of this invention was diluted with an appropriate diluting agent (such as propanone) to prepare a parent solution having a certain concentration. One ml of this solution was taken with a pipette into 50 ml of molten PDA media. After shaking thoroughly, it was poured into two Petri dishes, to create duplicate. After cooling, a mycelial pad (diameter = about 4 mm) was taken and inoculated on the center of the culture dish. The diluting agent was used as the control. After inoculation, the dish was kept in an incubator set at an appropriate temperature. After 72 hours of cultivation, length (diameter of the colony) of the growth of mycelia was measured, and fungal growth inhibition rate was calculated.

[2] = concentration 500 ppm (content of effective component), average of 3 tests
[3] = concentration lower than 500 ppm

CSCC(=NOCc1cccc(Oc2ccccc2)c1)c1ccc(Cl)cc1 [Code No. 5 E-form]
LC50 (Spotted cutworm): LC50 (ppm) < 5 | LC50 (American tobacco cutworm): LC50 (ppm) < 10 | LC50 (Green peach aphid): LC50 (ppm) > 100 | LC50 (Spinach army worm): LC50 (ppm) < 5

CSCC(=NOCc1cccc(Oc2ccccc2)c1)c1ccc(Cl)cc1 [Code No. 5]
kill rate [1]: 100% | leafhoppers killed [1]: 100% | lethal rate (Mythimne separata; [2]): exceeding 100% | lethal rate (Mythimne separata; [3]): 100% | lethal rate (aphids Aphis fabae): 100% | aphids killed (aphids Aphis fabae): 100%

CSC(C)C(=NOCc1cccc(Oc2ccccc2)c1)c1ccc(Cl)cc1 (stereo not shown) [Code No. 30 E-form, 1-(4-chlorophenyl)-2-methylthio-O-((3-phenoxyphenyl)methyl) 1-propanone oxime]
LC50 (Spotted cutworm; listed as 30 E-form): LC50 (ppm) < 1.5 | LC50 (American tobacco cutworm; listed as 30 E-form): LC50 (ppm) < 5 | LC50 (Green peach aphid; listed as 30 E-form): LC50 (ppm) < 15 | LC50 (Spinach army worm; listed as 30 E-form): LC50 (ppm) < 5

CSC(C)C(=NOCc1cccc(Oc2ccccc2)c1)c1ccc(Cl)cc1 (stereo not shown) [Code No. 30 Z-form, 1-(4-chlorophenyl)-2-methylthio-O-((3-phenoxyphenyl)methyl) 1-propanone oxime]
LC50 (Spotted cutworm; listed as 30 Z-form): LC50 (ppm) > 150 | LC50 (American tobacco cutworm; listed as 30 Z-form): LC50 (ppm) > 150 | LC50 (Green peach aphid; listed as 30 Z-form): LC50 (ppm) > 150 | LC50 (Spinach army worm; listed as 30 Z-form): LC50 (ppm) > 150

CSC(C)C(=NOCc1cccc(Oc2ccccc2)c1)c1ccc(Cl)cc1 (stereo not shown) [Code No. 30, 1-(4-chlorophenyl)-2-methylthio-O-((3-phenoxyphenyl)methyl) 1-propanone oxime]
kill rate [1]: 100% | leafhoppers killed [1]: 100% | lethal rate (Mythimne separata; [2]): exceeding 100% | lethal rate (Mythimne separata; [3]): 100% | lethal rate (aphids Aphis fabae): 100% | aphids killed (aphids Aphis fabae): 100%

CSCC(=NO)c1ccc(Cl)cc1 [compound (III) Code No. 5, 1-(4-chlorophenyl)-2-methylthio ethanone oxime]
inhibition at 100 ppm (fungal pathogens): > 90%
